10 molecules from ChEMBL document CHEMBL5107949, “Design, synthesis, and antibacterial activity of N-(trifluoromethyl)phenyl substituted pyrazole derivatives” (RSC Med Chem, 2021) can be followed below.

Converted amounts (≈) assume the structure as drawn.

The subject of data set [1] is Staphylococcus aureus. The data set can be described thus: Antibacterial activity against antibiotic susceptible Staphylococcus aureus ATCC 25923 assessed as inhibition of bacterial growth by CLSI protocol based broth microdilution method. The data set is classed as functional. (In broth dilution the organism is exposed to a series of concentrations in liquid medium.)

The test system of a further data set is Enterococcus faecalis. The data set can be described thus: Antibacterial activity against antibiotic susceptible Enterococcus faecalis ATCC 29212 assessed as inhibition of bacterial growth by CLSI protocol based broth microdilution method. The data set is classed as functional.
Data set [2] relates to Staphylococcus aureus. The data set can be described thus: Antibacterial activity against antibiotic resistant Staphylococcus aureus ATCC 700699 assessed as inhibition of bacterial growth by CLSI protocol based broth microdilution method. The data set is classed as functional.
The subject of data set [3] is Staphylococcus aureus. The data set can be described thus: Antibacterial activity against antibiotic resistant Staphylococcus aureus BAA-2312 assessed as inhibition of bacterial growth by CLSI protocol based broth microdilution method. Format: functional.
Data set [4] concerns Staphylococcus epidermidis. The data set can be described thus: Antibacterial activity against antibiotic resistant Staphylococcus epidermidis ATCC 700296 assessed as inhibition of bacterial growth by CLSI protocol based broth microdilution method. The data set is classed as functional.
Data set [5] has as its system Staphylococcus aureus. The data set can be described thus: Antibacterial activity against antibiotic resistant Staphylococcus aureus ATCC 33591 assessed as inhibition of bacterial growth by CLSI protocol based broth microdilution method. Format: functional.
The next data set relates to Enterococcus faecium. The data set can be described thus: Antibacterial activity against vancomycin resistant Enterococcus faecium ATCC 700221 assessed as inhibition of bacterial growth by CLSI protocol based broth microdilution method. Format: functional.
Another data set concerns Bacillus subtilis. The data set can be described thus: Antibacterial activity against antibiotic resistant Bacillus subtilis ATCC 6623 assessed as inhibition of bacterial growth by CLSI protocol based broth microdilution method. Format: functional.
Data set [6] concerns Staphylococcus aureus. The data set can be described thus: Antibacterial activity against antibiotic resistant Staphylococcus aureus ATCC 33592 assessed as inhibition of bacterial growth by CLSI protocol based broth microdilution method. The data set is classed as functional.
Data set [7] in a line: Cytotoxicity against human HEK293 cells reduction in cell viability incubated for 24 hrs by resazurin cell viability assay. The data set is classed as toxicity, cell-based.

As a reminder, the MIC is the lowest concentration that inhibits growth of the organism. For the molecule `O=C(O)c1ccc(-c2nn(-c3ccc(C(F)(F)F)cc3)cc2CNc2ccc(C(F)(F)F)cc2)cc1`, the MIC was 12.5 µg/mL (≈ 24.7 µM) with Staphylococcus aureus [1]; 25 µg/mL (≈ 49.5 µM) in the data set on Enterococcus faecalis; 3.12 µg/mL (≈ 6.17 µM) in the data set on Staphylococcus aureus [2]; 12.5 µg/mL (≈ 24.7 µM) in the data set on Staphylococcus aureus [3]; 12.5 µg/mL (≈ 24.7 µM) in data set [4]; 12.5 µg/mL (≈ 24.7 µM) in the data set on Staphylococcus aureus [5]. Moreover, the MIC in the data set with Enterococcus faecium came out at 12.5 µg/mL (≈ 24.7 µM); in the data set on Bacillus subtilis it was 6.25 µg/mL (≈ 12.4 µM); in the data set on Staphylococcus aureus [6], 6.25 µg/mL (≈ 12.4 µM).
Take `O=C(O)c1ccc(-c2nn(-c3ccc(C(F)(F)F)cc3)cc2CNc2ccc(F)c(F)c2)cc1`: the MIC with Staphylococcus aureus [1] turned out to be 12.5 µg/mL (≈ 26.4 µM); in the data set on Enterococcus faecalis it was 25 µg/mL (≈ 52.8 µM); with Staphylococcus aureus [2], 6.25 µg/mL (≈ 13.2 µM); with Staphylococcus aureus [3], 25 µg/mL (≈ 52.8 µM); in [4] it was 25 µg/mL (≈ 52.8 µM); in the data set with Staphylococcus aureus [5], 25 µg/mL (≈ 52.8 µM). The MIC in the data set with Enterococcus faecium amounted to 12.5 µg/mL (≈ 26.4 µM); with Bacillus subtilis it was 12.5 µg/mL (≈ 26.4 µM); in the data set with Staphylococcus aureus [6] it was 6.25 µg/mL (≈ 13.2 µM).
With `O=C(O)c1ccc(-c2nn(-c3ccc(C(F)(F)F)cc3)cc2CNc2ccc(Cl)cc2)cc1`, the minimum inhibitory concentration (MIC) with Staphylococcus aureus [1] was determined as 6.25 µg/mL (≈ 13.2 µM); in the data set on Enterococcus faecalis, 12.5 µg/mL (≈ 26.5 µM); in the data set on Staphylococcus aureus [2], 6.25 µg/mL (≈ 13.2 µM); in the data set on Staphylococcus aureus [3] it was 12.5 µg/mL (≈ 26.5 µM); in [4], 12.5 µg/mL (≈ 26.5 µM); in the data set with Staphylococcus aureus [5] it was 6.25 µg/mL (≈ 13.2 µM). Moreover, the MIC with Enterococcus faecium, with Bacillus subtilis and with Staphylococcus aureus [6] was 6.25 µg/mL (≈ 13.2 µM) throughout.
One may read the IC50 as the point on the concentration scale where inhibition reaches its midpoint. Read a low IC50 as greater potency in that assay. Take `Cc1ccc(NCc2cn(-c3ccc(C(F)(F)F)cc3)nc2-c2ccc(C(=O)O)cc2)cc1Cl`: the MIC came out at 3.12 µg/mL (≈ 6.42 µM) in the data set on Staphylococcus aureus [1]; 6.25 µg/mL (≈ 12.9 µM) in the data set with Enterococcus faecalis; 1.56 µg/mL (≈ 3.21 µM) in the data set with Staphylococcus aureus [2]; 3.12 µg/mL (≈ 6.42 µM) in the data set with Staphylococcus aureus [3]; 6.25 µg/mL (≈ 12.9 µM) in [4]; 6.25 µg/mL (≈ 12.9 µM) in the data set on Staphylococcus aureus [5]. The values for the MIC in the data set with Enterococcus faecium, with Bacillus subtilis and in the data set on Staphylococcus aureus [6] were 3.12 µg/mL (≈ 6.42 µM), 1.56 µg/mL (≈ 3.21 µM) and 3.12 µg/mL (≈ 6.42 µM), respectively. Further, the IC50 at 24 h in data set [7] is greater than 12 µg/mL.
For the molecule `Cc1cc(NCc2cn(-c3ccc(C(F)(F)F)cc3)nc2-c2ccc(C(=O)O)cc2)ccc1F`, the MIC in the data set on Staphylococcus aureus [1] amounted to 12.5 µg/mL (≈ 26.6 µM); in the data set on Enterococcus faecalis it was 25 µg/mL (≈ 53.3 µM); in the data set on Staphylococcus aureus [2] it was 6.25 µg/mL (≈ 13.3 µM); with Staphylococcus aureus [3] it was 25 µg/mL (≈ 53.3 µM); in data set [4], 25 µg/mL (≈ 53.3 µM); with Staphylococcus aureus [5], 25 µg/mL (≈ 53.3 µM). The MIC in the data set with Enterococcus faecium is 12.5 µg/mL (≈ 26.6 µM); in the data set on Bacillus subtilis, 12.5 µg/mL (≈ 26.6 µM); in the data set with Staphylococcus aureus [6] it was 6.25 µg/mL (≈ 13.3 µM).
For `O=C(O)c1ccc(-c2nn(-c3ccc(C(F)(F)F)cc3)cc2CNc2ccc(Cl)c(Cl)c2)cc1`, the MIC amounted to 1.56 µg/mL (≈ 3.08 µM) with Staphylococcus aureus [1]; 3.12 µg/mL (≈ 6.16 µM) in the data set on Enterococcus faecalis; 0.78 µg/mL (≈ 1.54 µM) with Staphylococcus aureus [2]; 1.56 µg/mL (≈ 3.08 µM) with Staphylococcus aureus [3]; 3.12 µg/mL (≈ 6.16 µM) in [4]; 1.56 µg/mL (≈ 3.08 µM) in the data set with Staphylococcus aureus [5]. Moreover, the MIC is 1.56 µg/mL (≈ 3.08 µM) with Enterococcus faecium, 0.39 µg/mL (≈ 0.77 µM) in the data set with Bacillus subtilis and 1.56 µg/mL (≈ 3.08 µM) in the data set with Staphylococcus aureus [6]. Moreover, in [7], the IC50 at 24 h is greater than 12 µg/mL.
Regarding `O=C(O)c1ccc(-c2nn(-c3ccc(C(F)(F)F)cc3)cc2CNc2ccc(F)c(Cl)c2)cc1`, the MIC with Staphylococcus aureus [1] came out at 3.12 µg/mL (≈ 6.37 µM); in the data set on Enterococcus faecalis it was 12.5 µg/mL (≈ 25.5 µM); in the data set with Staphylococcus aureus [2] it was 3.12 µg/mL (≈ 6.37 µM); with Staphylococcus aureus [3], 6.25 µg/mL (≈ 12.8 µM); in data set [4], 12.5 µg/mL (≈ 25.5 µM); with Staphylococcus aureus [5], 12.5 µg/mL (≈ 25.5 µM). The MIC with Enterococcus faecium was found to be 6.25 µg/mL (≈ 12.8 µM); in the data set on Bacillus subtilis, 3.12 µg/mL (≈ 6.37 µM); with Staphylococcus aureus [6], 3.12 µg/mL (≈ 6.37 µM).
As to `O=C(O)c1ccc(-c2nn(-c3ccc(C(F)(F)F)cc3)cc2CNc2cccc(Cl)c2F)cc1`, the MIC in the data set with Staphylococcus aureus [1] was found to be 3.12 µg/mL (≈ 6.37 µM); in the data set on Enterococcus faecalis, 12.5 µg/mL (≈ 25.5 µM); in the data set on Staphylococcus aureus [2], 3.12 µg/mL (≈ 6.37 µM); in the data set with Staphylococcus aureus [3], 6.25 µg/mL (≈ 12.8 µM); in data set [4] it was 12.5 µg/mL (≈ 25.5 µM); in the data set on Staphylococcus aureus [5], 6.25 µg/mL (≈ 12.8 µM). Further, the values for the MIC in the data set on Enterococcus faecium, in the data set with Bacillus subtilis and with Staphylococcus aureus [6] were 6.25 µg/mL (≈ 12.8 µM), 1.56 µg/mL (≈ 3.18 µM) and 3.12 µg/mL (≈ 6.37 µM), respectively.
With `CSc1ccc(NCc2cn(-c3ccc(C(F)(F)F)cc3)nc2-c2ccc(C(=O)O)cc2)cc1`, the MIC was 12.5 µg/mL (≈ 25.9 µM) in the data set with Staphylococcus aureus [1]; 25 µg/mL (≈ 51.7 µM) in the data set with Enterococcus faecalis; 12.5 µg/mL (≈ 25.9 µM) with Staphylococcus aureus [2]; 25 µg/mL (≈ 51.7 µM) in the data set with Staphylococcus aureus [3]; 50 µg/mL (≈ 103 µM) in [4]; 25 µg/mL (≈ 51.7 µM) with Staphylococcus aureus [5]. For the same molecule, the values for the MIC in the data set on Enterococcus faecium, with Bacillus subtilis and in the data set on Staphylococcus aureus [6] were 12.5 µg/mL (≈ 25.9 µM), 25 µg/mL (≈ 51.7 µM) and 25 µg/mL (≈ 51.7 µM), respectively.
With `O=C(O)c1ccc(-c2nn(-c3ccc(C(F)(F)F)cc3)cc2CNc2cccc(Br)c2)cc1`, the MIC with Staphylococcus aureus [1] was determined as 3.12 µg/mL (≈ 6.04 µM); with Enterococcus faecalis it was 12.5 µg/mL (≈ 24.2 µM); with Staphylococcus aureus [2], 3.12 µg/mL (≈ 6.04 µM); in the data set on Staphylococcus aureus [3], 6.25 µg/mL (≈ 12.1 µM); in [4], 12.5 µg/mL (≈ 24.2 µM); with Staphylococcus aureus [5] it was 3.12 µg/mL (≈ 6.04 µM). The minimum inhibitory concentration (MIC) with Enterococcus faecium, in the data set on Bacillus subtilis and in the data set with Staphylococcus aureus [6] was 6.25 µg/mL (≈ 12.1 µM) each time.
